# ChEMBL document CHEMBL3232986, “Identification of a novel series of potent HCV NS5B Site I inhibitors” (Bioorg Med Chem Lett, 2014)
# Key:
# [1] = test system: Hepatitis C virus; test: Antiviral activity against HCV genotype 1a H77c infected in human HuH7 cells after 3 days by luciferase reporter gene assay; format: functional, cell-based, Hepacivirus hominis; settings: Huh-7, 72 h
# [2] = Cytotoxicity against human HuH7 cells after 4 hrs by CellTitre-Blue assay; format: cell-based, Huh-7
# [3] = Ratio of EC50 for HCV genotype 1a H77c replicon cells to IC50 for HCV genotype 1b wild type NS5B polymerase
# [4] = Inhibition of HCV genotype 1b wild type NS5B polymerase using biotinylated oligo dT12 primer as substrate after 4 hrs in presence of [3H]UTP; design: species or system Hepatitis C virus subtype 1b
# [5] = Clearance in rat after 6 hrs; format: ADME, organism-based; settings: in vivo
# [6] = Drug uptake in rat liver at 5 mg/kg, iv after 6 hrs; format: ADME, organism-based; design: dose 5 mg/kg, route intravenous; settings: liver, read-out: Drug uptake
# [7] = Plasma concentration in rat at 10 mg/kg, po after 6 hrs; format: ADME, organism-based; design: dose 10 mg/kg, route oral; settings: plasma
# [8] = Plasma concentration in rat at 5 mg/kg, iv after 6 hrs; format: ADME, organism-based; design: dose 5 mg/kg, route intravenous; settings: plasma
# [9] = Drug uptake in rat liver 10 mg/kg, po after 6 hrs; format: ADME, organism-based; design: dose 10 mg/kg, route oral; settings: liver, read-out: Drug uptake
# [10] = Permeability of the compound at pH 7.4 by PAMPA; format: physicochemical; settings: read-out: permeability
Compound,EC50 [1] [nM],CC50 at 4 h [2] [nM],Ratio [3],IC50 [4] [nM],clearance [5] [mL/min/kg],concentration at 6 h [6] [nM],concentration at 6 h [7] [nM],concentration at 6 h [8] [nM],concentration at 6 h [9] [nM],Papp [10] [×10⁻⁶ cm/s]
COc1ccc2c(c1)[C@@H]1C[C@]1(C(=O)N1CC34COCC3(CN(C(C)=O)C4)C1)Cn1c-2c(C2CCCCC2)c2ccc(C(=O)NS(=O)(=O)C(C)C)cc21 (some centres not stated),42,> 100000,14,3,–,–,–,–,–,–
COc1ccc2c(c1)[C@@H]1C[C@]1(C(=O)N1CC34CCC3(CN(C(=O)N3CCCC3)C4)C1)Cn1c-2c(C2CCCCC2)c2ccc(C(=O)NS(=O)(=O)N(C)C)cc21 (some centres not stated),18,10000,–,2,–,–,–,–,–,–
COc1ccc2c(c1)[C@@H]1C[C@]1(C(=O)N1CC34CCC3(CN(CC(F)(F)F)C4)C1)Cn1c-2c(C2CCCCC2)c2ccc(C(=O)NS(=O)(=O)C(C)C)cc21 (some centres not stated),77,35000,–,7,–,–,–,–,–,–
COC(=O)N1CC23CCC2(C1)CN(C(=O)[C@]12C[C@H]1c1cc(OC)ccc1-c1c(C4CCCCC4)c4ccc(C(=O)NS(=O)(=O)C(C)C)cc4n1C2)C3 (some centres not stated),64,3000,–,25,–,–,–,–,–,–
COc1ccc2c(c1)[C@@H]1C[C@]1(C(=O)N1CC34CCC3(CN(C(C)=O)C4)C1)Cn1c-2c(C2CCCCC2)c2ccc(C(=O)NS(=O)(=O)C(C)C)cc21 (some centres not stated),31,37000,–,2,–,–,–,–,–,–
COc1ccc2c(c1)[C@@H]1C[C@]1(C(=O)N1CC34CCCC3(CN(C)C4)C1)Cn1c-2c(C2CCCCC2)c2ccc(C(=O)NS(=O)(=O)C(C)C)cc21 (some centres not stated),2,11000,–,3,31,428,24,22,504,–
COC(=O)N1CC23COCC2(C1)CN(C(=O)[C@]12C[C@H]1c1cc(OC)ccc1-c1c(C4CCCCC4)c4ccc(C(=O)NS(=O)(=O)N(C)C)cc4n1C2)C3 (some centres not stated),462,7000,–,–,–,–,–,–,–,–
COc1ccc2c(c1)[C@@H]1C[C@]1(C(=O)N1CC34COCC3(CN(CC(F)(F)F)C4)C1)Cn1c-2c(C2CCCCC2)c2ccc(C(=O)NS(=O)(=O)C(C)C)cc21 (some centres not stated),16,8000,–,4,–,–,–,–,–,–
CNC(=O)N1CC23COCC2(C1)CN(C(=O)[C@]12C[C@H]1c1cc(OC)ccc1-c1c(C4CCCCC4)c4ccc(C(=O)NS(=O)(=O)C(C)C)cc4n1C2)C3 (some centres not stated),200,> 100000,66,3,–,–,–,–,–,1.8
COc1ccc2c(c1)[C@@H]1C[C@]1(C(=O)N1CC34CNCC3(CN(C)C4)C1)Cn1c-2c(C2CCCCC2)c2ccc(C(=O)NS(=O)(=O)C(C)C)cc21 (some centres not stated),41,–,–,5,–,–,–,–,–,–
COC(=O)N1CC23COCC2(C1)CN(C(=O)[C@]12C[C@H]1c1cc(OC)ccc1-c1c(C4CCCCC4)c4ccc(C(=O)NS(=O)(=O)C(C)C)cc4n1C2)C3 (some centres not stated),46,5000,–,23,–,–,–,–,–,–
COc1ccc2c(c1)[C@@H]1C[C@]1(C(=O)N1CC34CCC3(CN(CC(F)(F)F)C4)C1)Cn1c-2c(C2CCCCC2)c2ccc(C(=O)NS(=O)(=O)N(C)C)cc21 (some centres not stated),55,26000,–,4,–,–,–,–,–,–
COc1ccc2c(c1)[C@@H]1C[C@]1(C(=O)N1CC34CCC3(C1)CN(S(=O)(=O)C(C)C)C4)Cn1c-2c(C2CCCCC2)c2ccc(C(=O)NS(=O)(=O)C(C)C)cc21 (some centres not stated),7,10000,–,4,–,–,–,–,–,–
COc1ccc2c(c1)[C@@H]1C[C@]1(C(=O)N1CC34CCC3(CN(C(=O)N(C(C)C)C(C)C)C4)C1)Cn1c-2c(C2CCCCC2)c2ccc(C(=O)NS(=O)(=O)C(C)C)cc21 (some centres not stated),37,10000,–,4,–,–,–,–,–,–
CCOCCN1CC23COCC2(C1)CN(C(=O)[C@]12C[C@H]1c1cc(OC)ccc1-c1c(C4CCCCC4)c4ccc(C(=O)NS(=O)(=O)C(C)C)cc4n1C2)C3 (some centres not stated),5,19000,–,–,81,77,8,32,116,–
COc1ccc2c(c1)[C@@H]1C[C@]1(C(=O)N1[C@@H]3CC[C@H]1CN(C)C3)Cn1c-2c(C2CCCCC2)c2ccc(C(=O)NS(=O)(=O)N(C)C)cc21 [BECLABUVIR],2,16000,–,4,–,–,–,–,–,–
COc1ccc2c(c1)[C@@H]1C[C@]1(C(=O)N1CC34CCC3(C1)CN(C1CC1)C4)Cn1c-2c(C2CCCCC2)c2ccc(C(=O)NS(=O)(=O)N(C)C)cc21 (some centres not stated),8,5000,–,–,–,–,–,–,–,–
COc1ccc2c(c1)[C@@H]1C[C@]1(C(=O)N1CC34CNCC3(COC4)C1)Cn1c-2c(C2CCCCC2)c2ccc(C(=O)NS(=O)(=O)C(C)C)cc21 (some centres not stated),23,–,–,6,–,–,–,–,–,–
COc1ccc2c(c1)[C@@H]1C[C@]1(C(=O)N1CC34CCC3(C1)CN(C1CC1)C4)Cn1c-2c(C2CCCCC2)c2ccc(C(=O)NS(=O)(=O)C(C)C)cc21 (some centres not stated),12,18000,–,5,–,–,–,–,–,–
COc1ccc2c(c1)[C@@H]1C[C@]1(C(=O)N1CC34CCC3(CN(C(=O)N(C(C)C)C(C)C)C4)C1)Cn1c-2c(C2CCCCC2)c2ccc(C(=O)NS(=O)(=O)N(C)C)cc21 (some centres not stated),23,7000,–,7,–,–,–,–,–,–
COc1ccc2c(c1)[C@@H]1C[C@]1(C(=O)N1CC34COCC3(CN(CC(F)(F)F)C4)C1)Cn1c-2c(C2CCCCC2)c2ccc(C(=O)NS(=O)(=O)N(C)C)cc21 (some centres not stated),19,7000,–,2,–,–,–,–,–,–
CCOCCN1CC23COCC2(C1)CN(C(=O)[C@]12C[C@H]1c1cc(OC)ccc1-c1c(C4CCCCC4)c4ccc(C(=O)NS(=O)(=O)N(C)C)cc4n1C2)C3 (some centres not stated),3,16000,–,–,–,–,–,–,–,–
CCN1CC23COCC2(C1)CN(C(=O)[C@]12C[C@H]1c1cc(OC)ccc1-c1c(C4CCCCC4)c4ccc(C(=O)NS(=O)(=O)C(C)C)cc4n1C2)C3 (some centres not stated),4,11000,–,4,49,–,6,8,66,–
CNC(=O)N1CC23CCC2(C1)CN(C(=O)[C@]12C[C@H]1c1cc(OC)ccc1-c1c(C4CCCCC4)c4ccc(C(=O)NS(=O)(=O)C(C)C)cc4n1C2)C3 (some centres not stated),20,72000,–,2,–,–,–,–,–,–
COc1ccc2c(c1)[C@@H]1C[C@]1(C(=O)N1CC34CCC3(CN(C(=O)N3CCOCC3)C4)C1)Cn1c-2c(C2CCCCC2)c2ccc(C(=O)NS(=O)(=O)C(C)C)cc21 (some centres not stated),28,27000,–,5,–,–,–,–,–,–
COc1ccc2c(c1)[C@@H]1C[C@]1(C(=O)N1CC34CN(C)CC3(CN(C)C4)C1)Cn1c-2c(C2CCCCC2)c2ccc(C(=O)NS(=O)(=O)C(C)C)cc21 (some centres not stated),1,43000,–,5,25,66,4,14,68,–
COc1ccc2c(c1)[C@@H]1C[C@]1(C(=O)N1CC34CCC3(CN(C(=O)N3CCCC3)C4)C1)Cn1c-2c(C2CCCCC2)c2ccc(C(=O)NS(=O)(=O)C(C)C)cc21 (some centres not stated),27,14000,–,4,–,–,–,–,–,–
COc1ccc2c(c1)[C@@H]1C[C@]1(C(=O)N1CC34COCC3(C1)CN(S(=O)(=O)C(C)C)C4)Cn1c-2c(C2CCCCC2)c2ccc(C(=O)NS(=O)(=O)N(C)C)cc21 (some centres not stated),6,12000,–,2,–,–,–,–,–,–
COc1ccc2c(c1)[C@@H]1C[C@]1(C(=O)N1CC34CCC3(CN(C)C4)C1)Cn1c-2c(C2CCCCC2)c2ccc(C(=O)NS(=O)(=O)C(C)C)cc21 (some centres not stated),4,21000,–,4,24,138,6,26,146,–
COc1ccc2c(c1)[C@@H]1C[C@]1(C(=O)N1CC34COCC3(C1)CN(S(=O)(=O)C(C)C)C4)Cn1c-2c(C2CCCCC2)c2ccc(C(=O)NS(=O)(=O)C(C)C)cc21 (some centres not stated),16,17000,8,2,–,–,–,–,–,–
